Results as given in patent US20160061843A1, “BIOMARKER ASSAY” (Respiratory Clinical Trials Ltd, priority 2014, published 2016).

Legend:
Format in all cases: cell-based, human
[1] = system: intracellular pSTAT1 in macrophages; assay: Flow cytometry of IFNγ-induced STAT1 phosphorylation in induced sputum macrophages from COPD subjects; details: IFNγ 10 ng/ml
Source text: Sputum samples were collected from 15 COPD subjects on three or four repeat visits (i.e., three to four samples per subject). In each case, the subject inhaled 3% (w/v) saline solution mist through the mouthpiece of an ultrasonic nebulizer for five minutes. Sputum mobilization techniques were utilized to assist with the production of a sputum sample, such as diaphragmatic breathing, huffs, percussion, vibrations and positive expiratory pressure techniques. The subject was asked to attempt to cough sputum into a sputum collection pot. If the FEV1 fell by <10% after inhalation of 3% (w/v) saline, the participant was asked to inhale the next saline concentration (4% w/v) and repeat the procedure detailed above. Again if the FEV1 fell by <10% after inhalation of 4% (w/v) saline, the participant was asked to inhale the next saline concentration (5% w/v) and repeat the procedure detailed above. The sputum collected after 15 minutes of nebulization (i.e., 3×5 minutes) was processed in the laboratory for flow cytometric analysis. Induced sputum was kept on ice and processed as soon as possible but no more than two hours from collection. Sputum plugs were selected for processing and suitably transferred into a centrifuge tube. The volume of the selected sputum sample was noted and an equal volume of DPBS added. To liquefy the sample Sputolysin® was added to a final concentration of 0.05% (w/v). The tube was placed on a plate shaker (300 rpm) for 30 minutes at room temperature to disperse the cells. After 30 minutes the sample was mixed gently with a Pasteur pipette and left to shake for a further 15 minutes. The sample was centrifuged at 1200 rpm for 10 minutes at room temperature. Sputum supernatant was collected and used to measure cytokines/chemokines of interest. […] The supernatant was removed and the cell pellet resuspended in 500 μl staining buffer ready for flow cytometric analysis. […] Levels of STAT phosphorylation in the macrophage population were determined by taking the MFI of the stimulated sample and dividing by the MFI for the non-stimulated sample.

[2] = system: intracellular pSTAT1(Y701) in macrophages; assay: Flow cytometry of IFNγ-induced STAT1(Y701) phosphorylation in induced sputum macrophages from smokers; details: unstimulated MFI 345.5; sputum from two smokers
Method: FIG. 11A is a line graph showing the stimulation of STAT1(Y701) phosphorylation in macrophages and neutrophils from induced sputum by IFNγ, and inhibition of such phosphorylation after pre-incubation with increasing concentrations of a MK2 inhibitor followed by IFNγ stimulation. FIG. 11B is a bar graph showing phosphorylation of STAT1 (Y701) in macrophages in the presence and absence of the MK2 inhibitor expressed as % stimulation. % stimulation was calculated as stimulated MFI/non-stimulated MFI×100.
Induced sputum samples were obtained as described in Example 1. In this study, however, the subjects were smokers. Sputum was collected from two subjects.
Sputum samples were processed as described in Example 1.
Inducing STAT1(Y701) Phosphorylation STAT phosphorylation was induced as described in Example 1. In this study, however, the inhibitor compound was a MK2 inhibitor […].
Samples were stained as described in Example 1. However, in this study, and in order to specifically detect STAT1(Y701) phosphorylation, an Alexa Fluor® 647 conjugated anti-pSTAT1(Y701) antibody was used.
Levels of STAT1(Y701) phosphorylation in the macrophage population were determined by taking the MFI of the stimulated sample and dividing by the MFI for the non-stimulated sample. A value of greater than one (>1) indicated positive staining.

[3] = system: intracellular pSTAT3 in sputum macrophages; assay: Flow cytometry of IFNγ-induced STAT3 phosphorylation in induced sputum macrophages from COPD subjects; details: % stimulation = stimulated MFI/non-stimulated MFI×100; IFNγ 10 ng/ml
Method: FIG. 10 is a bar graph showing STAT3 phosphorylation in sputum macrophages following stimulation with IFNγ in the absence or presence of increasing concentrations of a MK2 inhibitor. % stimulation was calculated as stimulated MFI/non-stimulated MFI×100.
The methods of Example 1 were repeated exactly, but this time measuring intracellular STAT3 phosphorylation using an Alexa Fluor® 647 conjugated anti-pSTAT3 antibody. In addition, a MK2 inhibitor was tested instead of a JAK inhibitor compound. Increasing concentrations of inhibitor were tested (1 μM, 10 μM and 100 μM); the same conditions otherwise applied.

Compound	inhibition of STAT1 phosphorylation (in words) ([1]; inhibitor final concentration 10^−5 M)	MFI of intracellular pSTAT1 in macrophages after incubation with IFNγ+JAK inhibitor ([1]; inhibitor final concentration 10^−5 M, unstimulated MFI 120.7±23.92, stimulated MFI 196.7±33.97)	MFI of intracellular pSTAT1(Y701) in macrophages stimulated with IFNγ [2]	MFI of intracellular pSTAT1 in macrophages after incubation with IFNγ ([1]; 20 min, 37° C., unstimulated MFI 120.7±23.92, 15 COPD subjects)	increase of intracellular pSTAT3 in sputum macrophages following incubation with IFNγ [3] [%]
C[C@@H]1CCN(C(=O)N2CCCC2)C[C@@H]1N(C)c1ncnc2[nH]ccc12 [JAK inhibitor, PF 956980]	complete inhibition	118.3±24.44	–	–	–
IFNγ: cytokine used as stimulator of STAT phosphorylation	–	–	511	196.7±33.97	100
